Assay results as given in patent US9029080B2, “Screening assay for insecticides” (priority 2008, dated 2015).
One block for each compound: values may come before it.

Legend:
DmSK Potassium Channel = target: T1, DmSK Potassium Channel (Drosophila melanogaster, UniProt Q7KVW5); experiment: Xenopus laevis oocyte two-electrode voltage clamp of DmSK; format: cell-based; conditions: intracellular injection of 100 mM, oocytes clamped at +5 mV
T1 construct: expressed in transfected cells; host or cells: Xenopus laevis oocytes injected with in vitro transcribed RNA
Experimental: Purpose: To utilize the oocyte two-electrode voltage clamp expression system to assay functional expression of the […] Drosophila melanogaster small-conductance calcium-activated potassium channel (SK) within Xenopus laevis oocytes.
Stage V-VI oocytes were injected with 50 nl of in vitro transcribed DmSK RNA (1 ug/ul) using a Drummond Nanoject Injector (pCRII-SK2+4D plasmid linearized with HindIII and transcribed using the Ambion T7 mMessage mMachine transcription kit).
Channel expression was assayed using two-electrode voltage clamp (borosilicate glass 1.5 mm×1.12 mm filled with 3M KCl) through a Turbo Tec 10C Amplifier (NPI Instruments) connected to an Apple PowerMac G3 via an ADInstruments PowerLab system.
Injected oocytes with resting potentials greater than −30 mV were clamped at +5 mV and perfused with ND-96 bath solution (96 mM NaCl, 2 mM KCl, 1 mM MgCl2, 0.3 mM CaCl2, 5 mM HEPES at pH 7.5 and 230 mOsm) Currents measured were filtered at 2 kHz and with a 50/60 Hz HumBug noise eliminator.
SK channels were activated with intracellular injection of 100 mM […] (9.2 nl) using the nanoject while clamped. Measured currents were compared to published results of SK activation within oocytes (FIG. 85).

CHO_pcDNA3 control cells = experiment: CHO_pcDNA3 control cells, FLIPR KCl depolarization; format: cell-based, Chinese hamster; conditions: 4-5 mM, dye loaded 1 hr at RT
Experimental: (§1) The effects of barium (Ba2+) on ShaI_delN function were tested. Barium is known to inhibit some open rectifier and inward rectifier K-channel activities. Cells were dye loaded in the presence of BaCl2 for 1 hr at RT and assayed on the FLIPR using KCl depolarization for channel activation.

ShaI = target: T2, ShaI (Drosophila melanogaster, UniProt P17971); experiment: ShaI electrophysiology (patch clamp); format: cell-based
T2 construct: expressed in transfected cells; host or cells: CHO
T2 sequence (P17971 1-490 isoform P17971-1): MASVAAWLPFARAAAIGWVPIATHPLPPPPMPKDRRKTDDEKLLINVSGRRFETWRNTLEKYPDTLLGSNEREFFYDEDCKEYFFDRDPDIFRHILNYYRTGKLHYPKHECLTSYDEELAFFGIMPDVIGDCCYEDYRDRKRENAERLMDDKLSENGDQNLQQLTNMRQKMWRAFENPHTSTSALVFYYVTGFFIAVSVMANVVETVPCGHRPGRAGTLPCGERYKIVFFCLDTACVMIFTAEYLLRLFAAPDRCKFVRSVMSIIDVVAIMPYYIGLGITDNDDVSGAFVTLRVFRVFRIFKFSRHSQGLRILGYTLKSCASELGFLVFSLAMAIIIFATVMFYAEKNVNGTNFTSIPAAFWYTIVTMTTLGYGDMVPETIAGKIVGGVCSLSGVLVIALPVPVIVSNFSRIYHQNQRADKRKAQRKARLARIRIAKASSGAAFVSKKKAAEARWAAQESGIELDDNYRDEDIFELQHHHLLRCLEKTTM
Experimental: Data were acquired and analyzed using pClamp software (version 9.0.1.16). The whole-cell configuration of the patch-clamp technique was used to voltage clamp cells at room temperature (22-25° C.). Pipettes were pulled from borosilicate glass capillaries (#8250, Garner Glass, Claremont, Calif.) using a DMZ Universal Puller (Zeitz, Munich, Germany) and had resistances of 1-2 MOhm when filled with pipette solution and measured in bath solution. The liquid junction potential between bath and pipette solution was always compensated before the formation of a gigaohm seal.
Membrane current was measured under whole-cell clamp, sampled at 2 kHz and filtered at 1 kHz by an Axoclamp 200B (Axon Instruments). Capacitance currents were electronically compensated at the beginning of each experiment. P/4 leak correction was applied.
To study ShaI currents on CHO cells, cells were held at −70 mV and a family of 500 ms test voltage pulses was applied starting from −70 to +70 mV, or +100 mV, in 10 mV increments. The amplitude, as measured for the current-voltage relationship, was defined as the maximal current at a given membrane potential.

ShaI_delN = target: T3, ShaI_delN (Drosophila melanogaster, UniProt P17971); experiment: ShaI_delN clonal lines, FLIPR blue membrane potential dye, KCl depolarization; format: cell-based; conditions: 4-5 mM, dye loaded 1 hr at RT
T3 construct: expressed in transfected cells; host or cells: CHO
Experimental: ShaI_DelN C10 and C15 were tested for function on the FLIPR using the Molecular Devices blue membrane potential dye. The cells were seeded at 60K cells/well in 96-well Costar plates in complete media and assayed for function at 24 hrs. Depolarization with 15-60 mM KCl caused a 2-2.8 fold higher activity in the clonal line than the pcDNA control cell line (FIG. 5). Clone 10 had slightly higher activity than clone 15.
FIG. 5: ShaI_DelN clones tested on FLIPR with KCl depolarization. We also tested some known K-channel blockers on channel activity on the FLIPR (FIG. 6). […] The ShaI_delN clonal cell lines lost their GFP expression and assay window with cell passage. At passage 12, only 10-15% of the cell population was GFP positive.
as §1

[1] = tested on: calcium-activated potassium currents; conditions: DUM neurons from cockroaches; cited from earlier work
[2] = Stability of octopamine solutions; format: physicochemical
Experimental: Octopamine was tested comparing freshly diluted versus a 24-hour solution (data not shown). The response obtained with the 24-hour solution stored at room temperature was identical to that of the freshly diluted solution. We have repeatedly […]

[3] = target: T4, octopamine receptor (OctR, CG6919 dmOa2) (Drosophila melanogaster, UniProt Q9VCZ3); experiment: OctR clone 55 FLIPR Fluo-4 calcium assay; format: cell-based
T4 construct: expressed in transfected cells; host or cells: CHO stably expressing G-alpha-16
Experimental: FIG. 62. Cells were plated at 10K/well in 384 well plates and allowed to incubate overnight at […]. The cells were assayed 18-24 hours after seeding. Media was removed and cells were dye loaded for 60 minutes with 2 μM Fluo-4. After 1 hour, dye was removed and 20 μl of buffer added to the plate and placed into FLIPR. The 1st addition was antagonist dose response curves and the 2nd addition was agonist dose response curves. Antagonists were challenged with 100 nM Octopamine. In addition, these compounds were tested in the parental cell line CHO-Galpha16.
Cells were plated at 10,000 cells/well in 50 μl into 384-well black TC plates and allowed to incubate overnight at 37° C./5% CO2. The cells were assayed 18-24 hours after seeding. Culture medium was removed by flicking and cells were dye loaded for 60 minutes with 20 μl of 2 μM Fluo-4 in assay buffer plus probenecid at 25° C. After one hour dye was removed by flicking and 20 μL of assay buffer was added, wait 5 min prior to placing into the FLIPR and run using a two-addition protocol. The first addition (20 ul, 2×) was 0.5% DMSO final in assay buffer. The second addition (20 ul, 3×) was either assay buffer or 100 nM octopamine final.

[4] = target: T5, octopamine receptor (OctR) (Drosophila melanogaster, UniProt Q9VCZ3); experiment: Transient OctR expression in CHO G-alpha-16 cells, Fluo-4, Discovery microscope; format: cell-based
T5 construct: various amounts of untagged OctR-pcDNA3.1 DNA were transfected into CHO cells; expressed in transfected cells; host or cells: CHO stably expressing G-alpha-16, transient transfection
T5 sequence (Q9VCZ3 1-508): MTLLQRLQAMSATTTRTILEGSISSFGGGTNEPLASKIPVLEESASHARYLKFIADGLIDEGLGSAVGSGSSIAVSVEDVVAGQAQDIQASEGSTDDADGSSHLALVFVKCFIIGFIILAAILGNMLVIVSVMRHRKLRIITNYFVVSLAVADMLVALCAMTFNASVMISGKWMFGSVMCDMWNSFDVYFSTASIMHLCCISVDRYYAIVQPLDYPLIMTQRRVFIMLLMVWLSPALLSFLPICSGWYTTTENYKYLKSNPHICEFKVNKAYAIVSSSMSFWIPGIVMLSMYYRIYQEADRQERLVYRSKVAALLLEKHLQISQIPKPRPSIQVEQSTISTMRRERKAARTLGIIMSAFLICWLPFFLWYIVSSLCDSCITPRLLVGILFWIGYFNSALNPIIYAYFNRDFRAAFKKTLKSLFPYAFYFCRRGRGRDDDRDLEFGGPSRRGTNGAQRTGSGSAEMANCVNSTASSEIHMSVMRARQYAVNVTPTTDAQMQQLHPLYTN
Experimental: The untagged and GFP-tagged versions of OctR, which natively couples to cAMP, were transiently expressed in CHO cells stably expressing the G-alpha-16 promiscuous G protein, which signals through calcium. This allowed activation of the receptor to be measured by calcium-sensing fluorescent dyes.
In FIG. 55A, various amounts of untagged OctR-pcDNA3.1 DNA were transfected into CHO cells (6-well dish, 300,000 cells/well) and tested for function at 48 hours using Fluo-4 dye on the Discovery microscope. The graph shown below represents an average of all single-cell readings from cells expressing the cyan vector. It is assumed that the majority of cells expressing the cyan vector also express OctR.
FIG. 55. Calcium-sensing Fluo-4 fluorescent dye response to octopamine or tyramine stimulation in CHO cells stably expressing G-alpha-16 and transiently expressing increasing amounts of untagged or GFP-tagged OctR-pcDNA3.1. Cells cotransfected with pAmCyan vector as a marker of transfected cells were stimulated with a maximal dose of octopamine or sub-maximal dose of tyramine. Well averages of single-cell response measured on the Discovery microscope are graphed above.

[5] = Ionomycin stability in solution; format: physicochemical; conditions: 5 uM in assay buffer, SK activation
Experimental: An experiment was conducted (data not shown) to examine the stability of ionomycin in solution. Ionomycin was diluted to 5 uM in assay buffer, loaded into a compound plate and compared with freshly-prepared ionomycin for SK activation the following day. The freshly-prepared ionomycin yielded a statistically significant 6% increase in assay window size, so our recommendation is for freshly-prepared ionomycin.

DmSK = target: T6, DmSK (Drosophila melanogaster, UniProt Q7KVW5); experiment: DmSK CHO membrane potential dye assay, ionomycin activation; format: cell-based
T6 construct: The resulting construct contains the SK CDS downstream of the CMV promoter; expressed in transfected cells; host or cells: CHO-K1 (pool 3 / clone SK3 and subclones)
Experimental: Basic test protocol: Cells were plated at 5×10^4/well into 96-well poly-D-lysine assay plates (BD Biosciences) and placed at 37 C/5% CO2 the day before testing. Culture medium was aspirated and replaced with 0.4× blue membrane potential dye (Molecular Devices Corporation) in assay buffer and incubated for 1 hour at RT. The assay was run by reading baseline fluorescence for 20 sec, and reading an additional 60 or 180 sec after activation.
This assay was developed using the Molecular Devices blue membrane potential dye at 0.4× the normal concentration. It is important to vortex the dye upon hydration and rinse the vial repeatedly to ensure that all the dye has been recovered and that it is in solution. The dye can be stored during the day at 4°. Dye loading is carried out by flipping the culture medium from the 96-well poly-D-lysine plate, gently tapping the plate on Kimwipes to remove excess medium, replacing it with 180 ul 0.4× dye per well, and incubating in the dark at room temperature (25° C.-28° C.) for 3-5 hr. The assay plate is now ready for testing which comprises a 20 ul (10×) first addition and 50 ul (5×) second addition. 50 uM propafenone [final] is used as a control inhibitor. The assay is read for three minutes after activation to allow maximum window development relative to controls. […]

SMILES: [Cl][Cd][Cl] [cadmium chloride]
activation of DmSK outward currents (DmSK Potassium Channel): outward currents activated by at least three 9.2 nl injections

SMILES: [Ba+2] [Ba2+]
fluorescent responses with KCl depolarization (CHO_pcDNA3 control cells): significantly reduced fluorescent responses
ShaI outward currents (ShaI): not inhibited
ShaI_delN channel activity with KCl depolarization (ShaI_delN): without any significant reduction

SMILES: CSSC [DMDS, di-methyl disulfide]
effect on calcium-activated potassium currents [1]: inhibits calcium-activated potassium currents

activity after repeated freeze-thaw ([2]; 10 mM DMSO stocks): no reduction in activity
response of 24-hour solution versus freshly diluted solution ([2]; stored at room temperature, data not shown): identical
80% octopamine control concentration ([3]; 20-plate DMSO test run, 2nd addition): 100 nM
SMILES: NCC(O)c1ccc(O)cc1 (centres unmarked) [octopamine]
rank order of potency (agonists) ([3]; clone 55, same as published cAMP data): naphazoline>octopamine>amitraz>clonidine>tolazoline

efficacy relative to octopamine ([4]; preliminary data and published reports): only slightly less efficacious
activation of octopamine receptor ([4]; sub-maximal dose): activated by tyramine
SMILES: NCCc1ccc(O)cc1 [tyramine]

SMILES: C[C@H](CCC(=O)O)C[C@H](C)C[C@H](C)C(=O)/C=C(\O)[C@H](C)C[C@H](C)C/C=C/[C@@H](C)[C@@H](O)[C@@H](C)[C@@H](O)C[C@@H]1CC[C@@](C)([C@H]2CC[C@@](C)([C@@H](C)O)O2)O1 [ionomycin]
increase in assay window size, freshly-prepared versus solution of the day before [5]: 6%
EC50 (DmSK): 200 nM
concentration above which no increase in response window (DmSK; SK3, relative to controls): 800 nM
